Experiments:
RAW264.7 [1] = assay: Cytotoxicity against mouse RAW264.7 cells assessed as reduction in cell viability at 50 uM by MTT assay; type: cell-based; conditions: raw264.7, 50 µM
RAW264.7 [2] = assay: Antiinflammatory activity against mouse RAW264.7 cells assessed as inhibition of LPS-induced NO production incubated for 24 hrs by Griess reagent-based assay; type: functional, cell-based; conditions: RAW264.7, 24 h
RAW264.7 [3] = assay: Antiinflammatory activity against mouse RAW264.7 cells assessed as inhibition of LPS-induced IL-6 secretion after 24 hrs by ELISA; type: functional, cell-based; conditions: RAW264.7, 24 h
RAW264.7 [4] = assay: Antiinflammatory activity against mouse RAW264.7 cells assessed as inhibition of LPS-induced TNF-alpha secretion after 24 hrs by ELISA; type: functional, cell-based; conditions: RAW264.7, 24 h

IC50 (RAW264.7 [2]) | IC50 (RAW264.7 [3]) | IC50 (RAW264.7 [4]) | Structure (SMILES) | Activity (RAW264.7 [1])
25.6 µM | 31.4 µM | 26.7 µM | COc1ccc2c(c1)O[C@@H](c1ccc(OC)cc1OC)[C@H](Cc1ccc(O)cc1)[C@H]2/C=C/c1ccc(O)cc1 | Non-Toxic
25.7 µM | > 50 µM | 11.4 µM | COc1ccc([C@H](/C=C/c2ccc(O)cc2)c2cc(-c3coc4cc(OC)cc(O)c4c3=O)c(O)cc2O)c(OC)c1 | Non-Toxic
5.2 µM | 26.8 µM | 14.7 µM | COc1ccc2c(c1)O[C@@]1(/C=C/c3ccc(O)cc3)c3ccc(OC)cc3O[C@H]2[C@H]1Cc1ccc(O)cc1 | Non-Toxic
4.1 µM | 32.6 µM | 20.5 µM | COc1ccc(/C=C/[C@H](c2ccc(O)cc2)c2cc(-c3coc4cc(OC)cc(O)c4c3=O)c(O)cc2O)c(OC)c1 | Non-Toxic
6 µM | 8.4 µM | 6.1 µM | C[C@@H]1C[C@H]2[C@@H]3CCC4=CC(=O)C=C[C@]4(C)[C@@]3(F)[C@@H](O)C[C@]2(C)[C@@]1(O)C(=O)CO [DEXAMETHASONE] | 
18.6 µM |  |  | C[C@H]1[C@H](C)CC[C@]2(C=O)CC[C@]3(C)C(=CC[C@@H]4[C@@]5(C)CC[C@H](O)C(C)(C)[C@@H]5CC[C@]43C)[C@H]12 [OLEANOALDEHYDE] | Non-Toxic
